What all share (test): ≥ marks a high value that may be exact or a test limit, other limits are often not marked, values filed in µg/mL are converted to µM
Assay [1] relates to Escherichia coli ATCC 25922.
The subject of assay [2] is Staphylococcus aureus ATCC 29213.
Assay [3] concerns Pseudomonas aeruginosa ATCC 27853.
In assay [4] the test system is Staphylococcus aureus ATCC 25923.

From DBAASP come the findings set out here.

≈ marks a conversion by molar mass, not a printed value.

The term MIC denotes the least concentration at which growth counts as inhibited.

Consider `CC(C)C[C@H](NC(=O)[C@H](C)NC(=O)[C@H](Cc1ccc(O)cc1)NC(=O)[C@H](CC(C)C)NC(=O)[C@H](CCCN=C(N)N)NC(=O)[C@H](C)NC(=O)[C@H](CC(C)C)NC(=O)[C@H](CO)NC(=O)[C@H](C)NC(=O)[C@H](CC(C)C)NC(=O)[C@@H](N)CC(=O)O)C(=O)N[C@@H](C)C(=O)N[C@@H](CCCN=C(N)N)C(N)=O` [DLASLARLYALAR], for which the MIC in assay [1] and in assay [2] was greater than 489 µM in each case.
As to `CC[C@H](C)[C@H](NC(=O)[C@@H](NC(=O)[C@@H](N)Cc1ccccc1)[C@@H](C)CC)C(=O)N[C@@H](Cc1c[nH]c2ccccc12)C(=O)N1CCC[C@H]1C(=O)N[C@@H](CC(C)C)C(=O)N[C@@H](CCCN=C(N)N)C(=O)N[C@@H](Cc1ccc(O)cc1)C(=O)N[C@@H](CCCN=C(N)N)C(=O)N[C@@H](CCCCN)C(N)=O` [FIIWPLRYRK], the MIC in assay [1] stood at 180 µM (≈ 250 µg/mL); in assay [2], 359 µM (≈ 500 µg/mL).
In the case of `CC[C@H](C)[C@H](NC(=O)[C@H](CCCN=C(N)N)NC(=O)[C@H](CCC(N)=O)NC(=O)[C@@H](NC(=O)[C@H](C)NC(=O)[C@H](CCCN=C(N)N)NC(=O)[C@H](CCCCN)NC(=O)[C@@H](N)Cc1ccccc1)C(C)C)C(=O)N[C@@H](CCCCN)C(=O)N[C@@H](CC(=O)O)C(=O)N[C@@H](Cc1ccccc1)C(=O)N[C@@H](CC(C)C)C(=O)N[C@@H](CCCN=C(N)N)C(=O)O` [FKRAVQRIKDFLR], the MIC was 5 µM (≈ 8.39 µg/mL) in assay [1] and greater than 40 µM in assay [2].
`CC(C)C[C@H](NC(=O)[C@H](CCCCN)NC(=O)[C@H](C)NC(=O)[C@H](CC(C)C)NC(=O)[C@H](CCCCN)NC(=O)[C@H](CCCCN)NC(=O)[C@H](C)NC(=O)[C@H](CC(C)C)NC(=O)[C@H](CCCCN)NC(=O)[C@H](C)NC(=O)[C@H](CC(C)C)NC(=O)[C@H](CCCCN)NC(=O)[C@H](CCCCN)NC(=O)[C@H](C)NC(=O)[C@H](CC(C)C)NC(=O)[C@H](CCCCN)NC(=O)[C@H](C)NC(=O)[C@H](CC(C)C)NC(=O)[C@@H](N)CCCCN)C(=O)N[C@@H](C)C(=O)N[C@@H](CCCCN)C(N)=O` [KLAKLAKKLAKLAKKLAKLAK]: the MIC in assay [1], in assay [3] and in assay [4] was 4 µM (≈ 9.1 µg/mL) each time.
As to `CC(C)C[C@H](NC(=O)[C@H](CCCCN)NC(=O)[C@H](C)NC(=O)[C@H](CC(C)C)NC(=O)[C@@H](N)CCCCN)C(=O)N[C@@H](C)C(=O)N[C@@H](CCCCN)C(N)=O` [KLAKLAK], the MIC in assay [1], in assay [3] and in assay [4] was greater than 95 µM in each case.
In the case of `CC(C)[C@H](NC(=O)[C@H](CC(=O)O)NC(=O)[C@H](CO)NC(=O)[C@@H](N)CCCCN)C(=O)N[C@@H](CCCN=C(N)N)C(=O)N[C@@H](CCCN=C(N)N)C(=O)N[C@@H](Cc1c[nH]c2ccccc12)C(=O)N[C@@H](CCCN=C(N)N)C(=O)N[C@@H](CO)C(=O)N[C@@H](CCCN=C(N)N)C(=O)N[C@@H](Cc1ccc(O)cc1)C(N)=O` [KSDVRRWRSRY], the MIC in assay [1], in assay [3] and in assay [4] was greater than 100 µM each time.
With `CC(C)C[C@H](NC(=O)[C@H](C)NC(=O)[C@H](CCCCN)NC(=O)[C@H](CCCCN)NC(=O)[C@@H](N)CC(C)C)C(=O)N[C@@H](CCCCN)C(=O)N[C@@H](CC(C)C)C(=O)N[C@@H](CC(C)C)C(=O)N[C@@H](CCCCN)C(=O)N[C@@H](CCCCN)C(=O)N[C@@H](CC(C)C)C(=O)N[C@@H](CC(C)C)C(=O)N[C@@H](CCCCN)C(=O)N[C@@H](CC(C)C)C(=O)N[C@@H](C)C(=O)NCC(=O)O` [LKKALKLLKKLLKLAG], the MIC in assay [1] and in assay [2] was 5 µM (≈ 8.89 µg/mL) throughout.
As for `CC(C)C[C@H](NC(=O)[C@H](CCCCN)NC(=O)[C@H](CC(C)C)NC(=O)[C@H](CC(C)C)NC(=O)[C@H](CCCCN)NC(=O)[C@H](CCCCN)NC(=O)[C@H](CC(=O)O)NC(=O)[C@H](CC(C)C)NC(=O)[C@H](CCCCN)NC(=O)[C@H](CC(C)C)NC(=O)[C@H](CC(C)C)NC(=O)[C@H](CCCCN)NC(=O)[C@H](CCCCN)NC(=O)[C@@H](N)CC(C)C)C(=O)N[C@@H](C)C(=O)NCC(=O)O` [LKKLLKLDKKLLKLAG], the figures for the MIC in assay [1] and in assay [2] were 10 µM (≈ 18.2 µg/mL) and greater than 40 µM, respectively.
In the case of `CC(C)C[C@H](NC(=O)[C@H](C)NC(=O)[C@H](CCCCN)NC(=O)[C@H](CCCCN)NC(=O)[C@H](CC(C)C)NC(=O)[C@H](CC(C)C)NC(=O)[C@H](CCCCN)NC(=O)[C@H](CC(C)C)NC(=O)[C@H](CC(C)C)NC(=O)[C@H](CCCCN)NC(=O)[C@H](CCCCN)NC(=O)[C@@H](N)CC(C)C)C(=O)N[C@@H](CCCCN)C(=O)N[C@@H](CC(C)C)C(=O)N[C@@H](C)C(=O)NCC(=O)O` [LKKLLKLLKKALKLAG], the MIC in assay [1] and in assay [2] was 5 µM (≈ 8.89 µg/mL) in each case.
In the case of `CC(=O)N[C@@H](CC(C)C)C(=O)N[C@@H](CCCCN)C(=O)N[C@@H](CCCCN)C(=O)N[C@@H](CC(C)C)C(=O)N[C@@H](CC(C)C)C(=O)N[C@@H](CCCCN)C(=O)N[C@@H](CC(C)C)C(=O)N[C@@H](CC(C)C)C(=O)N[C@@H](CCCCN)C(=O)N[C@@H](CCCCN)C(=O)N1CCC[C@H]1C(=O)N[C@@H](CC(C)C)C(=O)N[C@@H](CCCCN)C(=O)N[C@@H](CC(C)C)C(N)=O` [LKKLLKLLKKPLKL], the results for the MIC in assay [1] and in assay [2] were 28.3 µM (≈ 48.6 µg/mL) and 40 µM (≈ 68.7 µg/mL), respectively.
The matching figures for `CC(=O)N[C@@H](CC(C)C)C(=O)N[C@@H](CCCCN)C(=O)N[C@@H](CCCCN)C(=O)N[C@@H](CC(C)C)C(=O)N[C@@H](CC(C)C)C(=O)N[C@@H](CCCCN)C(=O)N[C@@H](CC(C)C)C(=O)N1CCC[C@H]1C(=O)N[C@@H](CCCCN)C(=O)N[C@@H](CCCCN)C(=O)N[C@@H](CC(C)C)C(=O)N[C@@H](CC(C)C)C(=O)N[C@@H](CCCCN)C(=O)N[C@@H](CC(C)C)C(N)=O` [LKKLLKLPKKLLKL]: 56.6 µM (≈ 97.1 µg/mL) and greater than 80 µM.
Turning to `CC(C)C[C@H](NC(=O)[C@H](CC(=O)O)NC(=O)[C@@H](NC(=O)[C@H](CCCCN)NC(=O)[C@H](CC(C)C)NC(=O)[C@@H](N)CCC(N)=O)C(C)C)C(=O)N[C@@H](Cc1c[nH]c2ccccc12)C(=O)NCC(=O)N[C@H](C(=O)N[C@@H](CCCN=C(N)N)C(N)=O)[C@@H](C)O` [QLKVDLWGTR], the MIC in assay [1], in assay [3] and in assay [4] was greater than 100 µM each time.
For the compound `NC(=O)[C@H](Cc1c[nH]c2ccccc12)NC(=O)[C@H](CCCN=C(N)N)NC(=O)[C@H](Cc1ccc(O)cc1)NC(=O)[C@H](CCCN=C(N)N)NC(=O)[C@H](Cc1c[nH]c2ccccc12)NC(=O)[C@@H](N)CCCN=C(N)N` [RWRYRW], the MIC in assay [1] amounted to 48.9 µM (≈ 50 µg/mL); in assay [3], 78.3 µM (≈ 79.9 µg/mL); in assay [4] it was 9.78 µM (≈ 9.99 µg/mL).
The matching figures for `CSCC[C@H](NC(=O)[C@H](CCCN=C(N)N)NC(=O)[C@@H](N)Cc1ccc(O)cc1)C(=O)N[C@@H](Cc1c[nH]c2ccccc12)C(=O)N[C@@H](CCCN=C(N)N)C(=O)N[C@@H](Cc1c[nH]c2ccccc12)C(=O)N[C@@H](C)C(=O)N[C@@H](Cc1c[nH]c2ccccc12)C(=O)N[C@@H](CCCN=C(N)N)C(=O)N[C@@H](Cc1c[nH]c2ccccc12)C(=O)N[C@@H](CCCN=C(N)N)C(N)=O` [YRMWRWAWRWR]: 5.7 µM (≈ 9.99 µg/mL), 11.4 µM (≈ 20 µg/mL) and 1.43 µM (≈ 2.5 µg/mL).
